The NIST ThermoML archive (doi:10.1016/j.jct.2009.03.014)
Where “and” joins values, the source holds several entries; their conditions need not be identical. Equal values may be shown once.

Experiments:
[1] = molar enthalpy of vaporization or sublimation; details: 298.15 K, Crystal
[2] = Crystal, Calculated from knudsen effusion weight loss

O=[N+]([O-])c1c(Cl)cc(Cl)cc1Cl [1,3,5-trichloro-2-nitrobenzene]
Details | molar enthalpy, Drop-Microcalorimetry [kcal/mol] | vapor or sublimation pressure, 287.13 K | vapor or sublimation pressure, 289.15 K | vapor or sublimation pressure, 291.14 K | vapor or sublimation pressure, 293.13 K | vapor or sublimation pressure, 295.15 K | vapor or sublimation pressure, 297.15 K | vapor or sublimation pressure, 299.14 K | vapor or sublimation pressure, 301.13 K | vapor or sublimation pressure, 303.14 K
[1] | 20.1 | – | – | – | – | – | – | – | – | –
[2] | – | 0.000143 kPa and 0.000137 kPa and 0.000136 kPa | 0.000183 kPa and 0.000176 kPa and 0.000174 kPa | 0.000231 kPa and 0.000224 kPa and 0.000217 kPa | 0.000295 kPa and 0.000293 kPa and 0.000301 kPa | 0.000387 kPa and 0.000371 kPa and 0.000369 kPa | 0.000487 kPa and 0.000435 kPa and 0.000445 kPa | 0.000651 kPa and 0.000582 kPa and 0.000577 kPa | 0.0008 kPa and 0.000723 kPa and 0.000725 kPa | 0.000992 kPa and 0.000924 kPa and 0.000927 kPa

O=[N+]([O-])c1c(Cl)c(Cl)cc(Cl)c1Cl [2,3,5,6-tetrachloronitrobenzene]
Details | molar enthalpy [kcal/mol]
[1], Drop Microcalorimetry | 21.8

O=[N+]([O-])c1c(Cl)c(Cl)c(Cl)c(Cl)c1Cl [pentachloronitrobenzene]
Details | molar enthalpy [kcal/mol] | vapor or sublimation pressure
[1], Drop Microcalorimetry | 23 | –
[2], 317.11 K | – | 0.000102 kPa and 0.000101 kPa
[2], 319.18 K | – | 0.000129 kPa and 0.000127 kPa and 0.000124 kPa
[2], 321.2 K | – | 0.00015 kPa and 0.000155 kPa and 0.000154 kPa
[2], 323.11 K | – | 0.000197 kPa and 0.000196 kPa and 0.000199 kPa
[2], 325.18 K | – | 0.000246 kPa and 0.000245 kPa and 0.000241 kPa
[2], 327.2 K | – | 0.000289 kPa and 0.000296 kPa and 0.000292 kPa
[2], 329.11 K | – | 0.000372 kPa and 0.000367 kPa and 0.000366 kPa
[2], 331.17 K | – | 0.000462 kPa and 0.000453 kPa and 0.000447 kPa
[2], 333.2 K | – | 0.000531 kPa and 0.000549 kPa and 0.00054 kPa
[2], 335.11 K | – | 0.000692 kPa and 0.000673 kPa and 0.000671 kPa
[2], 337.18 K | – | 0.000844 kPa and 0.000833 kPa and 0.000818 kPa
[2], 339.2 K | – | 0.000971 kPa and 0.001009 kPa and 0.000993 kPa
